These results are taken from patent US20080114047A1 (priority 2003, published 2008).

Values joined by “and” are separate entries in the source; they are usually repeats but may differ in a detail not shown here. Equal values may be shown once. Read-outs that look alike come from different tables or passages of the source.

Broadly, the IC50 is the midpoint of a concentration-inhibition curve. Broadly, the melting point is the temperature, or range, at which the solid turns liquid. As usually defined, the MIC90 is an inhibitory concentration at the 90% level, which refers to growth in some studies and to a panel of isolates in others.

One data set relates to J774 macrophages. As to the kind of experiment: Toxicity against J774 macrophages (IC50). The following applies: Mus musculus, Tables I-III, V. It is filed as cell-based.
Data set [1] has as its system Trypanosoma brucei rhodesiense. The experiment in a line: Anti-protozoan data: T.b.r. IC50. It is filed as cell-based. The following applies: Tables VI(a), VI(c), read-out: T.b.r. IC50.
Data set [2] deals with L. donovani axenic amastigotes. The experiment in a line: In vitro anti-leishmania activity (IC50 vs. L. donovani axenic amastigotes). It is filed as cell-based. The conditions noted are these: for IC50: Leishmania donovani.
Another data set has as its system Plasmodium falciparum. The experiment in a line: Anti-protozoan data: P. falcip. IC50. It is filed as cell-based. The conditions noted are these: Tables VI(a), VI(c), read-out: P. falcip. IC50.
Data set [3] relates to Mycobacterium tuberculosis. The experiment in a line: Compounds tested against Mycobacterium tuberculosis (MIC90). It is filed as cell-based. The conditions noted are these: read-out: M. tb. MIC90.
The test system of the next data set is Trypanosoma cruzi. The experiment in a line: Anti-protozoan data: T. cruzi IC50. It is filed as cell-based. The following applies: Tables VI(a), VI(c), read-out: T. cruzi IC50.
Setting [4] is: Tables VI(a), VI(c), read-out: Leishmania donovani IC50.
[5] abbreviates: axenic amastigotes, Tables I-V, read-out: IC50 vs. L. donovani.

Turning to `Cl.Cl.c1cc(OCCCOc2ccc(C3=NCCN3)cc2)cc(-c2cc3cc(C4=NCCN4)ccc3o2)c1` [Compound 34, 2-(2-(3-(3-(4-(4,5-Dihydro-1H-imidazol-2-yl)phenoxy)propoxy)phenyl)benzofuran-5-yl) -4,5-dihydro-1H-imidazole dihydrochloride], the melting point was in the range of 193 to 197 °C. Moreover, in the data set with J774 macrophages, inhibition was half-maximal at 7.1 ± 0.8 µM (IC50). In addition, in data set [1], the IC50 is 1170 nM. The half-inhibitory concentration (IC50) in data set [2] (setting [4]) was determined as 5.93 ± 0.04 µM. In addition, the IC50 in data set [2] (setting [5]) amounted to 5.93 ± 0.04 µM. The half-inhibitory concentration (IC50) in “in vitro” came out at 6.52 µM. For the same compound, in the data set with Plasmodium falciparum, the IC50 came to 108 nM.
For `Cl.Cl.N=C(N)c1ccc(OCCCCOc2cccc(-c3cc4cc(C(=N)N)ccc4o3)c2)cc1` [Compound 35, 2-(3-(4-(4-Carbamimidoylphenoxy)butoxy)phenyl)benzofuran-5-carboxamidine dihydrochloride], the melting point is 284 to 286 °C. Besides, half-maximal inhibition in the data set with J774 macrophages (IC50) was put at 9.6 ± 1.5 µM. The IC50 in data set [1] was determined as 779 nM. Besides, the IC50 in data set [2] (setting [4]) turned out to be 4.45 ± 1.93 µM. Also, in data set [2] (setting [5]), the IC50 is 4.45 ± 1.93 µM. Besides, the IC50 in the data set “in vitro” stood at 8.06 µM. Further, in the data set on Plasmodium falciparum, the IC50 came out at 75.5 nM.
The compound `Cl.Cl.N=C(N)c1ccc(OCCCCOc2cccc(-c3cc4ccc(C(=N)N)cc4o3)c2)cc1` [Compound 59, 2-(3-(4-(4-Carbamimidoylphenoxy)butoxy)phenyl)benzofuran-6-carboxamidine dihydrochloride] registered a melting point of 278 to 280 °C. Moreover, in the data set on J774 macrophages, inhibition was half-maximal at 11 ± 2 µM (IC50). Further, the IC50 in data set [1] was 1330 nM. For the same compound, the IC50 in data set [2] (setting [4]) stood at 5.93 ± 0.24 µM. In addition, the IC50 in data set [2] (setting [5]) was found to be 5.93 ± 0.24 µM. Half-maximal inhibition in the data set “in vitro” (IC50) required 7.57 µM. For the same compound, the IC50 in the data set with Plasmodium falciparum was 321 nM.
Turning to `CC(C)NC(=N)c1ccc(OCCCOc2ccc(-c3cc4ccc(C(=N)NC(C)C)cc4o3)cc2)cc1.Cl.Cl` [Compound 69, 2-(4-(3-(4-(N-Isopropylcarbamimidoyl)phenoxy)propoxy)phenyl)-N-isopropylbenzofuran-6-carboxamidine dihydrochloride], the melting point was in the range of 266 to 270 °C. Besides, the MIC90 in data set [3] is 0.54 µg/mL and 0.92 µM. This compound displayed an IC50 with J774 macrophages of 9.9 ± 1.7 µM. The IC50 in data set [1] came to 88.1 nM. For the same compound, in data set [2] (setting [4]), the IC50 is 3.18 ± 0.19 µM. The IC50 in data set [2] (setting [5]) stood at 3.18 ± 0.19 µM. This compound also showed an IC50 in “in vitro” of 49.9 µM. Moreover, the IC50 with Trypanosoma cruzi is 28.4 µM. Moreover, the IC50 with Plasmodium falciparum came out at 36.6 nM.
As for `Cl.Cl.c1cc(C2=NCCN2)ccc1OCCCOc1ccc(-c2cc3ccc(C4=NCCN4)cc3o2)cc1` [Compound 70, 2-(2-(4-(3-(4-(4,5-Dihydro-1H-imidazol-2-yl)phenoxy)propoxy)phenyl)benzofuran-6-yl)-4,5-dihydro-1H-imidazole dihydrochloride], the melting point lay in the range of 283 to 284 °C. In data set [3], the MIC90 is 0.86 µg/mL and 1.5 µM. Further, the IC50 in the data set on J774 macrophages was determined as 2.4 ± 0.1 µM. For the same compound, the IC50 in data set [1] turned out to be 144 nM. The “selectivity for axenic amastigotes over J774 macrophages (fold more active against the parasites compared to the mammalian host cells)” value in data set [2] (L. donovani vs. J774 macrophages) was 5 fold. In addition, the IC50 in data set [2] (setting [4]) came out at 0.48 ± 0.16 µM. Moreover, in data set [2] (setting [5]), the IC50 amounted to 0.48 ± 0.16 µM. Also, the IC50 in “in vitro” was determined as 16.8 µM. Also, the IC50 with Trypanosoma cruzi amounted to 7.11 µM. In the data set with Plasmodium falciparum, the IC50 amounted to 41.8 nM.
Compound `Cl.Cl.N=C(N)c1ccc(OCCCCOc2ccc(-c3cc4ccc(C(=N)N)cc4o3)cc2)cc1` [Compound 71, 2-(4-(4-(4-Carbamimidoylphenoxy)butoxy)phenyl)benzofuran-6-carboxamidine dihydrochloride] returned a melting point of 324 to 325 °C. Moreover, the MIC90 in data set [3] was 0.45 µg/mL and 0.85 µM. Besides, 0.86 ± 0.2 µM corresponded to half-maximal inhibition with J774 macrophages (IC50). The IC50 in data set [1] came out at 1060 nM. Moreover, in data set [2] (setting [4]), the IC50 was 3.22 ± 0.96 µM. The IC50 in data set [2] (setting [5]) came out at 3.22 ± 0.96 µM. Further, the IC50 in the data set “in vitro” stood at 14.1 µM. Also, the IC50 with Trypanosoma cruzi is 12.5 µM. Further, the IC50 in the data set with Plasmodium falciparum was 166 nM.
